What follows are compounds tested against T1, hTRPV3 (Homo sapiens, UniProt Q8NET8) (assay: Whole-cell patch-clamp recording of hTRPV3 current in transfected HEK293T cells (2-APB induced)). Conditions: current induced by 300 μM 2-APB, compounds tested up to 10 μM, room temperature.
T1 construct: The commercially available plasmid with the full-length cDNA of hTRPV3 (791 aa) (NM_001258205.2); host or cells: HEK293T
T1 sequence (Q8NET8 1-791 isoform Q8NET8-2): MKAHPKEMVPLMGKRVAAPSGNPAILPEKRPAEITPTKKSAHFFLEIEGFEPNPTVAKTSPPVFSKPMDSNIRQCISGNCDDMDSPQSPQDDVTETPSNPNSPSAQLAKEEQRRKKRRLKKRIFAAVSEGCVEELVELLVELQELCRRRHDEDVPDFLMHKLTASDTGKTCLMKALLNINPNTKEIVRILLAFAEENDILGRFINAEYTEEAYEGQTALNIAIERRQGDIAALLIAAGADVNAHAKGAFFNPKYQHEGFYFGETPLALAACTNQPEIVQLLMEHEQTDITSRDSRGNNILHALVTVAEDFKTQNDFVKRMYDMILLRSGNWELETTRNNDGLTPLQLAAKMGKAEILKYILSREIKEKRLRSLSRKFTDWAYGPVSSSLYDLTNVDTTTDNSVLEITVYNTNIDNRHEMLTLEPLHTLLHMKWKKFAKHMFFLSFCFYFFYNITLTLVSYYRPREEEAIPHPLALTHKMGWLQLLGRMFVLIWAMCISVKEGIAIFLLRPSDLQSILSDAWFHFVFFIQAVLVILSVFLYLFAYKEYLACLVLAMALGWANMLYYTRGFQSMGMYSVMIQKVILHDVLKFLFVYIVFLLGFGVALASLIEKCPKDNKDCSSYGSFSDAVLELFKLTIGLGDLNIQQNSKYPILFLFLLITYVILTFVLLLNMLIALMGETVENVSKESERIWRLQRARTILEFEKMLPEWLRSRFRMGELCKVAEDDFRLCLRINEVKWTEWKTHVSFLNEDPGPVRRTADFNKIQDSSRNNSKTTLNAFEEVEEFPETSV
Type: cell-based
Description: Various technologies can be utilized to assess TRPV3 activation in accordance with the present disclosure. For example, in some embodiments, compounds are assessed in in vitro patch clamp experiments. Certain useful procedures are described herein as examples.
In some embodiments, whole-cell patch-clamp recordings were used to detect the current through hTRPV3 channels in the HEK293T cell line transfected with hTRPV3 cDNA and evaluate the exact blocking effect of compounds on hTRPV3. In some embodiments, a perfusion system was adopted to control the extracellular solution, including the addition of the agonist and different antagonists.
HEK293T cells were cultured in a Dulbecco's modified Eagle's medium containing 10% fetal bovine serum (Thermo Scientific) and 1% penicillin/streptomycin (Thermo Scientific) at 37° C. with 5% CO2. The commercially available plasmid with the full-length cDNA of hTRPV3 (791 aa) (NM_001258205.2) was purchased from OriGene Technologies. The transfection of hTRPV3 plasmids was conducted using Lipofectamine™ 3000 following the manufacturer's instructions (Invitrogen).
Whole-cell patch-clamp experiments were performed 18 h post-transfection, using a MultiClamp 700B amplifier driven by pClamp 11 software (Molecular Devices). In order to achieve good single-cell physical separation, HEK293T cells with hTRPV3 expression were digested and then re-plated at low density on glass coverslips. Electrodes were pulled from borosilicate glass with a P-97 micropipette puller (Sutter Instruments) and those with resistances of 3-5 MΩ are used for experiments. In some embodiments, an Ag—AgCl wire was used as a reference electrode and signals are filtered using a 2.9 kHz low-pass Bessel filter. Membrane potential was held at 0 mV. For recording of agonist-induced activation and inhibition by different test compounds, currents were elicited by a protocol consisting of a 400-ms step to +80 mV, followed by a 400-ms step to −80 mV at 2-s intervals. both pipette and bath solutions contained 130 mM NaCl, 0.3 mM EDTA, and 3 mM HEPES (buffered to pH 7.4 with NaOH). All recordings were made at room temperature.
All patch-clamp recordings were analyzed using the Clampfit software and GraphPad Prism 6.0 software. Specifically, data are analyzed by calculating the degree of current amplitude after the test compound addition compared with the unblocked agonist-induced current amplitude. The resulting blocking percentage at each concentration was used to make a concentration-response analysis and fitted to the Hill equation: blocking percentage=minimum blocking percentage+ (maximum blocking percentage-minimum blocking percentage)/(1+10^(Hill slope* […])). The minimum blocking percentage is 0% and maximum blocking percentage is 100%, while the Hill slope and the IC50 were determined as the curve fitting routine. Compounds of interest were tested against hTRPV3 at concentrations up to 10 μM, and certain data was used to estimate IC50 as described herein.

SMILES | IC50 [nM]
COc1ncnc(OC)c1C(=O)Nc1nc2c(s1)C1(CCCCCC1)Oc1cc(C(F)(F)F)ccc1-2 [compound 26, 4,6-dimethoxy-N-(7-(trifluoromethyl)spiro[chromeno[4,3-d]thiazole-4,1′-cycloheptan]-2-yl)pyrimidine-5-carboxamide] | 100 to 1000
COc1ncnc(OC)c1C(=O)Nc1nc2c(s1)C1(CCN(C(=O)OC(C)(C)C)CC1)Oc1cc(C(F)(F)F)ccc1-2 [compound 27, tert-butyl 2-(4,6-dimethoxypyrimidine-5-carboxamido)-7-(trifluoromethyl)spiro[chromeno[4,3-d]thiazole-4,4′-piperidine]-1′-carboxylate] | < 100
C=CCCC1Oc2cc(C(F)(F)F)ccc2-c2nc(NC(=O)c3c(OC)ncnc3OC)sc21 (stereo not drawn) [compound 28, N-(4-(but-3-en-1-yl)-7-(trifluoromethyl)-4H-chromeno[4,3-d]thiazol-2-yl)-4,6-dimethoxypyrimidine-5-carboxamide] | 100 to 1000
COc1ncnc(OC)c1C(=O)Nc1nc2c(s1)C(CCc1ccccc1)Oc1cc(C(F)(F)F)ccc1-2 (stereo not drawn) [compound 29, 4,6-dimethoxy-N-(4-phenethyl-7-(trifluoromethyl)-4H-chromeno[4,3-d]thiazol-2-yl)pyrimidine-5-carboxamide] | 100 to 1000
COc1ncnc(OC)c1C(=O)Nc1nc2c(s1)C1(CCC(OCc3ccccc3)CC1)Oc1cc(C(F)(F)F)ccc1-2 (stereo not drawn) [compound 30, N-(4′-(benzyloxy)-7-(trifluoromethyl)spiro[chromeno[4,3-d]thiazole-4,1′-cyclohexan]-2-yl)-4,6-dimethoxypyrimidine-5-carboxamide] | 100 to 1000
CCC1CCC2(CC1)Oc1cc(C(F)(F)F)ccc1-c1nc(NC(=O)c3c(OC)ncnc3OC)sc12 (stereo not drawn) [compound 31, N-(4′-ethyl-7-(trifluoromethyl)spiro[chromeno[4,3-d]thiazole-4,1′-cyclohexan]-2-yl)-4,6-dimethoxypyrimidine-5-carboxamide] | 100 to 1000
CCOC(=O)C1CCC2(CC1)Oc1cc(C(F)(F)F)ccc1-c1nc(NC(=O)c3c(OC)ncnc3OC)sc12 (stereo not drawn) [compound 32, ethyl 2-(4,6-dimethoxypyrimidine-5-carboxamido)-7-(trifluoromethyl)spiro[chromeno[4,3-d]thiazole-4,1′-cyclohexane]-4′-carboxylate] | < 100
COc1ncnc(OC)c1C(=O)Nc1nc2c(s1)C1(CCC(C)CC1)Oc1cc(C(F)(F)F)ccc1-2 (stereo not drawn) [compound 33, 4,6-dimethoxy-N-(4′-methyl-7-(trifluoromethyl)spiro[chromeno[4,3-d]thiazole-4,1′-cyclohexan]-2-yl)pyrimidine-5-carboxamide] | 100 to 1000
COc1ncnc(OC)c1C(=O)Nc1nc2c(s1)C1(CCC(C)(C)CC1)Oc1cc(C(F)(F)F)ccc1-2 [compound 34, N-(4′,4′-dimethyl-7-(trifluoromethyl)spiro[chromeno[4,3-d]thiazole-4,1′-cyclohexan]-2-yl)-4,6-dimethoxypyrimidine-5-carboxamide] | 100 to 1000
COc1ncnc(OC)c1C(=O)Nc1nc2c(s1)C1(CCCC(C)(C)C1)Oc1cc(C(F)(F)F)ccc1-2 (stereo not drawn) [compound 35, N-(3′,3′-dimethyl-7-(trifluoromethyl)spiro[chromeno[4,3-d]thiazole-4,1′-cyclohexan]-2-yl)-4,6-dimethoxypyrimidine-5-carboxamide] | 100 to 1000
COc1ncnc(OC)c1C(=O)Nc1nc2c(s1)C1(CCC(c3ccc(C)cc3)CC1)Oc1cc(C(F)(F)F)ccc1-2 (stereo not drawn) [compound 36, 4,6-dimethoxy-N-(4′-(p-tolyl)-7-(trifluoromethyl)spiro[chromeno[4,3-d]thiazole-4,1′-cyclohexan]-2-yl)pyrimidine-5-carboxamide] | 100 to 1000
COc1ncnc(OC)c1C(=O)Nc1nc2c(s1)C1(CC(C)CC(C)C1)Oc1cc(C(F)(F)F)ccc1-2 (stereo not drawn) [compound 37, N-(3′,5′-dimethyl-7-(trifluoromethyl)spiro[chromeno[4,3-d]thiazole-4,1′-cyclohexan]-2-yl)-4,6-dimethoxypyrimidine-5-carboxamide] | 100 to 1000
CCC1CCCC2(C1)Oc1cc(C(F)(F)F)ccc1-c1nc(NC(=O)c3c(OC)ncnc3OC)sc12 (stereo not drawn) [compound 38, N-(3′-ethyl-7-(trifluoromethyl)spiro[chromeno[4,3-d]thiazole-4,1′-cyclohexan]-2-yl)-4,6-dimethoxypyrimidine-5-carboxamide] | 100 to 1000
COc1ncnc(OC)c1C(=O)Nc1nc2c(s1)C1(CCCC(NC(=O)OCc3ccccc3)C1)Oc1cc(C(F)(F)F)ccc1-2 (stereo not drawn) [compound 39, benzyl(2-(4,6-dimethoxypyrimidine-5-carboxamido)-7-(trifluoromethyl)spiro[chromeno[4,3-d]thiazole-4,1′-cyclohexan]-3′-yl)carbamate] | 100 to 1000
COc1ncnc(OC)c1C(=O)Nc1nc2c(s1)C1(CCC(F)(F)CC1)Oc1cc(C(F)(F)F)ccc1-2 [compound 40, N-(4′,4′-difluoro-7-(trifluoromethyl)spiro[chromeno[4,3-d]thiazole-4,1′-cyclohexan]-2-yl)-4,6-dimethoxypyrimidine-5-carboxamide] | 100 to 1000
CCCCCCC1(C)Oc2cc(C(F)(F)F)ccc2-c2nc(NC(=O)c3c(OC)ncnc3OC)sc21 (stereo not drawn) [compound 41, N-(4-hexyl-4-methyl-7-(trifluoromethyl)-4H-chromeno[4,3-d]thiazol-2-yl)-4,6-dimethoxypyrimidine-5-carboxamide] | 100 to 1000
COc1ncnc(OC)c1C(=O)Nc1nc2c(s1)C(C)(CCc1ccccc1)Oc1cc(C(F)(F)F)ccc1-2 (stereo not drawn) [compound 42, 4,6-dimethoxy-N-(4-methyl-4-phenethyl-7-(trifluoromethyl)-4H-chromeno[4,3-d]thiazol-2-yl)pyrimidine-5-carboxamide] | 100 to 1000
C=CCCOc1ncnc(OC)c1C(=O)Nc1nc2c(s1)C1(CCCCC1)Oc1cc(C(F)(F)F)ccc1-2 [compound 43, 4-(but-3-en-1-yloxy)-6-methoxy-N-(7-(trifluoromethyl)spiro[chromeno[4,3-d]thiazole-4,1′-cyclohexan]-2-yl)pyrimidine-5-carboxamide] | 100 to 1000
C=CCCC1(C)Oc2cc(C(F)(F)F)ccc2-c2nc(NC(=O)c3c(OC)ncnc3OC)sc21 (stereo not drawn) [compound 44, N-(4-(but-3-en-1-yl)-4-methyl-7-(trifluoromethyl)-4H-chromeno[4,3-d]thiazol-2-yl)-4,6-dimethoxypyrimidine-5-carboxamide] | < 100
COc1ncnc(OC)c1C(=O)Nc1nc2c(s1)C1(CCNCC1)Oc1cc(C(F)(F)F)ccc1-2 [compound 45, 4,6-dimethoxy-N-(7-(trifluoromethyl)spiro[chromeno[4,3-d]thiazole-4,4′-piperidin]-2-yl)pyrimidine-5-carboxamide] | ≥ 10000
COc1ncnc(OC)c1C(=O)Nc1nc2c(s1)C1(CCN(C)CC1)Oc1cc(C(F)(F)F)ccc1-2 [compound 46, 4,6-dimethoxy-N-(1′-methyl-7-(trifluoromethyl)spiro[chromeno[4,3-d]thiazole-4,4′-piperidin]-2-yl)pyrimidine-5-carboxamide] | 1000 to 10000

Reference: patent US20260217697A1, “COMPOUNDS COMPRISING HETEROARYL RINGS AND COMPOSITIONS AND METHODS THEREOF” (lonGen Therapeutics Co., Ltd., priority 2022, published 2026)
